Read-outs that look alike come from different tables or passages of the source.
Legend:
Raji cells = assay: MTS single-dosage cell viability assay; format: cell-based; conditions: 250 nM
Source text: (§1) Single-Dosage Cell Viability Assay in CA-46 and Raji Cells. CA-46 and Raji are both Myc-dependent and -overexpressing non-Hodgkin's lymphoma cell lines. Both cell lines overexpress Myc due to a translocation that inserts an IgH enhancer upstream to the Myc gene. Whereas CA-46's translocation eliminates the G-quadruplex-forming region in one allele, Raji's translocation preserves the G-quadruplex-forming regions in both alleles. Therefore, Raji would be more sensitive to G-quadruplex-mediated Myc inhibition than CA-46, which may be reflected in lower IC50 values for Raji than CA-46. To evaluate cell line selectivity, MTS single-dosage assays were conducted to compare the antiproliferative effects of 7-aza-8,9-methylenedioxyindenoisoquinolines on CA-46 and Raji cells at 250 nM drug concentration (FIG. 8). Average % viability values of CA-46 and Raji cells for each drug were presented in bar plots side-by-side.
(§2) MTS Cell Viability Single-dosage Assay. Drug solutions for the MTS single dosage assays were made from DMSO stocks by dilutions in 1×PBS. To set up treatments, drug solutions were plated in triplicates to a 96-well tissue culture plate and added with media containing CA46 or Raji 2000 cells/well. […] Cells were quantified the same way as in the IC50 assays. To obtain %-viability, A490 values were subtracted by blank, normalized to 100%-viability control, and averaged. […]

CA-46 cells = assay: MTS single-dosage cell viability assay; format: cell-based; conditions: CA-46, 250 nM
Source text: as §1, §2

in vivo = format: in vivo
[1] = format: in vivo
[2] = in vivo, iv, 20 mg/kg
Procedure: Brain Penetration Studies. […] The concentrations were determined by LC-MS/MS with direct measurement of the plasma samples. The brain tissue was homogenized with water using a 3:1 ratio of water (mL) to brain (g) before determination of the concentrations (ng/mL) in the brain homogenates, and the homogenate values then were multiplied by a factor of 4 to obtain the brain concentrations (ng/g).

[3] = Metabolic stability in liver microsomes; conditions: human liver microsomes
[4] = Brain penetration and plasma/brain pharmacokinetics in combination with Temodar or Lynparza; conditions: for Vd: iv, 10 mg/kg, Vss—obs
Procedure: A similar analysis was performed with LMP744 and LMP400 in combination with Temodar and Lynparza.

[5] = 10 mg/kg IV + Lynparza 100 mg/kg PO, 0.25 h
[6] = 10 mg/kg IV + Lynparza 100 mg/kg PO, 0.5 h
[7] = 10 mg/kg IV + Lynparza 100 mg/kg PO, 1 h
[8] = 10 mg/kg IV + Lynparza 100 mg/kg PO, 2 h
[9] = 10 mg/kg IV + Lynparza 100 mg/kg PO, 4 h
[10] = 10 mg/kg IV + Lynparza 100 mg/kg PO, 8 h
[11] = 10 mg/kg IV + Lynparza 100 mg/kg PO, 24 h
[12] = LMP400 10 mg/kg IV + Temador 125 mg/kg PO, 0.25 h
[13] = LMP400 10 mg/kg IV + Temador 125 mg/kg PO, 0.5 h
[14] = LMP400 10 mg/kg IV + Temador 125 mg/kg PO, 2 h
[15] = LMP400 10 mg/kg IV + Temador 125 mg/kg PO, 4 h
[16] = LMP400 10 mg/kg IV + Temador 125 mg/kg PO, 8 h
[17] = LMP400 10 mg/kg IV + Temador 125 mg/kg PO, 24 h
[18] = brain, 10 mg/kg IV + Lynparza 100 mg/kg PO
[19] = brain, LMP400 10 mg/kg IV + Temador 125 mg/kg PO
[20] = plasma, 10 mg/kg IV + Lynparza 100 mg/kg PO
[21] = plasma, LMP400 10 mg/kg IV + Temador 125 mg/kg PO

COc1cc2c3c(n(CCCN4CCOCC4)c(=O)c2cc1OC)-c1nc2c(cc1C3=O)OCO2 [G101, 2,3-Dimethoxy-6-(3-morpholinopropyl)-5H-[1,3]dioxolo[4″,5″:5′,6′]pyrido[3′,2′:4,5]cyclopenta[1,2-c]isoquinoline-5,12(6H)-dione]
growth inhibition (% viability) (Raji cells): did not show growth inhibition
growth inhibition (% viability) (CA-46 cells): did not show growth inhibition

CCNCCCn1c2c(c3cc(OC)c(OC)cc3c1=O)C(=O)c1cc3c(nc1-2)OCO3 [G104, 6-(3-(Ethylamino)propyl)-2,3-dimethoxy-5H-[1,3]dioxolo[4″,5″:5′,6′]pyrido [3′,2′:4,5]cyclopenta[1,2-c]isoquinoline-5,12(6H)-dione]
Kp at 3 h (in vivo; NOD SCID, mouse, tumor and plasma, RS4;11, 3 h, IV 15 mg/kg, read-out: Mean Tumor/Plasma Ratio): 76.1 ± 18.9
Mean Tumor/Plasma Ratio (in vivo; RS4;11, 3 h, IV 30 mg/kg): 77.3 ± 11.8
Mean Tumor/Plasma Ratio (in vivo; RS4;11, 9 h, IV 15 mg/kg): 130 ± 32
Mean Tumor/Plasma Ratio (in vivo; RS4;11, 9 h, IV 30 mg/kg): 112 ± 16
Mean Tumor/Plasma Ratio ([1]; MOLT-4, 3 h, IV 15 mg/kg): 51.3 ± 6.7
Mean Tumor/Plasma Ratio ([1]; MOLT-4, 3 h, IV 30 mg/kg): 69.5 ± 8.8
Mean Tumor/Plasma Ratio ([1]; MOLT-4, 9 h, IV 15 mg/kg): 125 ± 29
Mean Tumor/Plasma Ratio ([1]; MOLT-4, 9 h, IV 30 mg/kg): 106 ± 21

COc1cc2c3c(n(CCCNCCO)c(=O)c2cc1OC)-c1nc2c(cc1C3=O)OCO2 [G105, 6-(3-((2-Hydroxyethyl)amino)propyl)-2,3-dimethoxy-5H-[1,3]dioxolo[4″,5″:5′,6′]pyrido[3′,2′:4,5]cyclopenta[1,2-c]isoquinoline-5,12(6H)-dione]
Mean Tumor/Plasma Ratio (in vivo; RS4;11, 3 h, IV 10 mg/kg): 62.3 ± 17.7
Mean Tumor/Plasma Ratio (in vivo; RS4;11, 3 h, IV 20 mg/kg): 111 ± 18
Mean Tumor/Plasma Ratio (in vivo; RS4;11, 9 h, IV 10 mg/kg): 185 ± 25
Mean Tumor/Plasma Ratio (in vivo; RS4;11, 9 h, IV 20 mg/kg): 383 ± 183
AUCInf ([2]; male, CD1, mouse): 2949 ng·h/mL
AUClast ([2]; male, CD1, mouse): 2847 ng·h/mL
C0 ([2]; male, CD1, mouse): 3904 ng/mL
Cl_obs ([2]; male, CD1, mouse): 113 mL/min/kg
MRTInf—obs ([2]; male, CD1, mouse): 4.12 h
T1/2 ([2]; male, CD1, mouse): 6.18 h
Brain/Plasma Conc Ratio ([2]; male, CD1, mouse, 0.25 h): 0.42
Brain/Plasma Conc Ratio ([2]; male, CD1, mouse, 0.5 h): 0.44
Brain/Plasma Conc Ratio ([2]; male, CD1, mouse, 1 h): 0.73
Brain/Plasma Conc Ratio ([2]; male, CD1, mouse, 2 h): 1.45
Brain/Plasma Conc Ratio ([2]; male, CD1, mouse, 4 h): 2.71
Brain/Plasma Conc Ratio ([2]; male, CD1, mouse, 8 h): 10.2
AUClast ([2]; mouse): 9698 ng·h/g
Mean Tumor/Plasma Ratio ([1]; MOLT-4, 3 h, IV 10 mg/kg): 50 ± 13.4
Mean Tumor/Plasma Ratio ([1]; MOLT-4, 9 h, IV 10 mg/kg): 357 ± 180
Mean Tumor/Plasma Ratio ([1]; MOLT-4, 9 h, IV 20 mg/kg): 326 ± 102
Scaled-up CLint [3]: 7.67 mL/min/kg
in vitro CLint [3]: 6.12 μL/min/mg protein
T1/2 ([3]; 1 μM): 3.7753 h

COc1cc2c3c(n(CCCN4CCOCC4)c(=O)c2cc1OC)-c1cc2c(cc1C3=O)OCO2 [LMP400, indotecan]
Brain Conc [4, 5]: 14924 ± 107 nM
Brain/Plasma Conc Ratio [4, 5]: 4.58
Plasma Conc [4, 5]: 3258 ± 295 nM
Brain Conc [4, 6]: 12083 ± 1787 nM
Brain/Plasma Conc Ratio [4, 6]: 5.42
Plasma Conc [4, 6]: 2231 ± 419 nM
Brain Conc [4, 7]: 6670 ± 431 nM
Plasma Conc [4, 7]: 1787 ± 169 nM
Brain Conc [4, 8]: 3766 ± 408 nM
Brain/Plasma Conc Ratio [4, 8]: 2.73
Plasma Conc [4, 8]: 1381 ± 84 nM
Brain Conc [4, 9]: 2666 ± 265 nM
Brain/Plasma Conc Ratio [4, 9]: 2.83
Plasma Conc [4, 9]: 941 ± 190 nM
Brain Conc [4, 10]: 1162 ± 104 nM
Plasma Conc [4, 10]: 491 ± 53 nM
Brain Conc [4, 11]: 235 ± 76 nM
Plasma Conc [4, 11]: 111 ± 39 nM
Brain/Plasma Conc Ratio [4, 12]: 5.99
Plasma Conc [4, 12]: 2311 ± 274 nM
Brain Conc [4, 13]: 10074 ± 1157 nM
Brain/Plasma Conc Ratio [4, 13]: 5.20
Plasma Conc ([4]; LMP400 10 mg/kg IV + Temador 125 mg/kg PO, 1 h): 1944 ± 211 nM
Brain/Plasma Conc Ratio [4, 14]: 3.16
Plasma Conc [4, 14]: 1041 ± 57 nM
Brain Conc [4, 15]: 1722 ± 226 nM
Brain/Plasma Conc Ratio [4, 15]: 2.79
Plasma Conc [4, 15]: 617 ± 24 nM
Brain Conc [4, 16]: 919 ± 165 nM
Brain/Plasma Conc Ratio [4, 16]: 1.91
Plasma Conc [4, 16]: 481 ± 104 nM
Brain Conc [4, 17]: 177 ± 70 nM
Brain/Plasma Conc Ratio [4, 17]: 0.96
AUCInf [4, 18]: 20928 ng·h/g
AUClast [4, 18]: 19983 ng·h/g
AUC—% Extrap—obs [4, 18]: 4.51%
Cmax [4, 18]: 12173 ng/g
T1/2 [4, 18]: 6.01 h
AUCInf [4, 19]: 16590 ng·h/g
AUClast [4, 19]: 15811 ng·h/g
AUC—% Extrap—obs [4, 19]: 4.70%
Cmax [4, 19]: 9080 ng/g
MRTInf—obs [4, 19]: 5.67 h
T1/2 [4, 19]: 6.35 h
Tmax [4, 19]: 4.98 min
concentration at 0.25 h ([4]; mouse, brain, intravenous, Brain Conc, LMP400 10 mg/kg IV + Temador 125 mg/kg PO, 0.25 h): 13800 ± 638 nM
concentration at 1 h ([4]; mouse, brain, intravenous, Brain Conc, LMP400 10 mg/kg IV + Temador 125 mg/kg PO, 1 h): 5360 ± 276 nM
concentration at 2 h ([4]; mouse, brain, intravenous, Brain Conc, LMP400 10 mg/kg IV + Temador 125 mg/kg PO, 2 h): 5290 ± 321 nM
concentration at 0.5 h ([4]; mouse, plasma, intravenous, Plasma Conc, LMP400 10 mg/kg IV + Temador 125 mg/kg PO, 0.5 h): 1940 ± 274 nM
Vd ([4]; mouse, plasma, plasma, 10 mg/kg IV + Lynparza 100 mg/kg PO): 10.4 L/kg
Vd ([4]; mouse, plasma, plasma, LMP400 10 mg/kg IV + Temador 125 mg/kg PO): 11.9 L/kg
AUCInf [4, 20]: 7144 ng·h/mL
AUClast [4, 20]: 6642 ng·h/mL
AUClast/D [4, 20]: 664 h·ng/mL per mg/kg
AUC—% Extrap—obs [4, 20]: 7.02%
C0 [4, 20]: 2286 ng/mL
Cl_obs [4, 20]: 23.3 mL/min/kg
T1/2 [4, 20]: 6.74 h
AUCInf [4, 21]: 6248 ng·h/mL
AUClast [4, 21]: 5823 ng·h/mL
AUClast/D [4, 21]: 582 h·ng/mL per mg/kg
AUC—% Extrap—obs [4, 21]: 6.80%
C0 [4, 21]: 3042 ng/mL
Cl_obs [4, 21]: 26.7 mL/min/kg
MRTInf—obs [4, 21]: 7.41 h
T1/2 [4, 21]: 7.03 h
